Reference: patent publication US20250114345A1, “COMPOUNDS AND COMPOSITIONS AS CBP/P300 DEGRADERS AND USES THEREOF” (Oncopia Therapeutics, Inc. d/b/a/ SK Life Science Labs, priority 2023, published 2025)

Target: T1, p300 (Homo sapiens, UniProt Q09472)
T1 construct: host or cells: A549 P300 HiBit cells
Assay: P300 degradation, HiBit technology in A549 P300 HiBit cells (2 h)
Format: cell-based
Details: 2 hrs post treatment; for Dmax: A549, A549 P300 HiBit cells; for DC50: A549 P300 HiBit cells
Summary of the method: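 A549 cells carrying HiBit-tagged p300 or CBP, seeded overnight at 37 °C/5% CO2, then treated with serial compound dilutions from 10 mM DMSO stocks. Incubation was 2 h for p300 and 24 h for CBP, followed by HiBit lytic detection reagent for 10 min at room temperature. Luminescence read gave degradation potency and Dmax.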

T1 sequence (Q09472 whole entry): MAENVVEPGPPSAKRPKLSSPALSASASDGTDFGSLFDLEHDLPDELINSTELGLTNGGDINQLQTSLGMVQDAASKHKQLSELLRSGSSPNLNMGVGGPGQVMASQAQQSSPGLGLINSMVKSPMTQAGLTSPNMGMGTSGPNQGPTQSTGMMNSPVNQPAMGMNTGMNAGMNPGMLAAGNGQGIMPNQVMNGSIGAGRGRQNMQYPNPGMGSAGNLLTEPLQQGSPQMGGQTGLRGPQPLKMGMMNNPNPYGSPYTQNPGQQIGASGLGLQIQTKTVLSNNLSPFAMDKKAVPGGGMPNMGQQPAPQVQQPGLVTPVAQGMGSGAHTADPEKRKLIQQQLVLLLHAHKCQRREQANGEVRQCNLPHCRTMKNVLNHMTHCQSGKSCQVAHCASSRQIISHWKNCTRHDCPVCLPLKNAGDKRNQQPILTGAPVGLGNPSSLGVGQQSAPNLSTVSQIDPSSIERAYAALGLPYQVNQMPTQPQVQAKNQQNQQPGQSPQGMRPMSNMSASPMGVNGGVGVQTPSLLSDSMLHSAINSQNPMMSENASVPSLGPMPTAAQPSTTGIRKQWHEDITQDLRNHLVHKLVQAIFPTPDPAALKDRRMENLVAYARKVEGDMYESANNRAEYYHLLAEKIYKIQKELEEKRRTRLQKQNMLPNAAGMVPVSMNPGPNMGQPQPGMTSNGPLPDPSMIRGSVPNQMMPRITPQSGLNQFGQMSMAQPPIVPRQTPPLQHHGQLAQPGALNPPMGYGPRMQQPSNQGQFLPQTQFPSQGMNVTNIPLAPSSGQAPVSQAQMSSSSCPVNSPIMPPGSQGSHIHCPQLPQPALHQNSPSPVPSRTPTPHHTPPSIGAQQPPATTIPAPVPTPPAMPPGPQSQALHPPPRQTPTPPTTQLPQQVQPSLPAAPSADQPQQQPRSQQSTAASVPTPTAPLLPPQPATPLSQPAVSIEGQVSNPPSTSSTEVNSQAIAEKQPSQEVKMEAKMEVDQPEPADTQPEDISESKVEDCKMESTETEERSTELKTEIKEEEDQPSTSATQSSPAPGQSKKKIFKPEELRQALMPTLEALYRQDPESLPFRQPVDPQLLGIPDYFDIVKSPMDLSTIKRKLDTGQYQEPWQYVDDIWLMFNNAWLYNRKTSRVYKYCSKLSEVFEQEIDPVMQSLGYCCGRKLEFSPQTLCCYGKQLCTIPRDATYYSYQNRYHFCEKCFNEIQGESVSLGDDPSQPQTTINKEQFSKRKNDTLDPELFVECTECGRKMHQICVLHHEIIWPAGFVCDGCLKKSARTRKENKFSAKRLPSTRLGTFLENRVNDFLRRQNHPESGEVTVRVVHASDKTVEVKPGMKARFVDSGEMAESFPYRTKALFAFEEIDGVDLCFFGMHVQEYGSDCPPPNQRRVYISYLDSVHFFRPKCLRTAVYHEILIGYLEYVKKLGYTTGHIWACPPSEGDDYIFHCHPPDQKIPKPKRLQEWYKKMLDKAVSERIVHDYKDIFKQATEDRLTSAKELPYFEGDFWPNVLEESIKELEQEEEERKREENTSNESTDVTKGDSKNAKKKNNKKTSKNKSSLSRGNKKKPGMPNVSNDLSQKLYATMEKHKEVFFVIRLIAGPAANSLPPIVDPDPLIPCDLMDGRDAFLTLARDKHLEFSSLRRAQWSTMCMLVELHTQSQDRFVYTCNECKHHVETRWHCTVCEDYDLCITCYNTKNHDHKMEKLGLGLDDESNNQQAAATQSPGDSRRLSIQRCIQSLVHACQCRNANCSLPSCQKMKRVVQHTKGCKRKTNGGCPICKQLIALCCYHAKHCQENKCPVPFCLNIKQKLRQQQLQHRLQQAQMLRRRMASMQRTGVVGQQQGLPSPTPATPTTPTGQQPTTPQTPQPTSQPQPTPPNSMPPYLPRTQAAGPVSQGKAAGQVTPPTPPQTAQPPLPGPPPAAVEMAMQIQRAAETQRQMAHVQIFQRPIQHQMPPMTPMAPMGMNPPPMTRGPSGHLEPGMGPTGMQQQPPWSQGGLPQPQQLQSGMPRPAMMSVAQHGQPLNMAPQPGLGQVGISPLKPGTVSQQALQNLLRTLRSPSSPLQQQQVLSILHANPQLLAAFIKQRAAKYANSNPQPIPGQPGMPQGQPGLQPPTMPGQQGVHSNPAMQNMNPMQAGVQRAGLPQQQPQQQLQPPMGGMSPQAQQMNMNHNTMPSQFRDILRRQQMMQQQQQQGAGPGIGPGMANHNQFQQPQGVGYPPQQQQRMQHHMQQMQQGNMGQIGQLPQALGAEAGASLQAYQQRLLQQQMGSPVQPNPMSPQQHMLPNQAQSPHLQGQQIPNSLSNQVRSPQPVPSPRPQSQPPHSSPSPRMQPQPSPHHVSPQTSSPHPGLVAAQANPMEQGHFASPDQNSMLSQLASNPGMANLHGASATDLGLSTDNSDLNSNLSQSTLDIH

| SMILES | Dmax [%] | DC50 [nM] |
| --- | --- | --- |
| Cc1cc(-c2ncc(N(C)c3cc(C4CCOCC4)c4c(c3)n(C)c(=O)n4C)cn2)cnc1C(=O)NCC#Cc1ccc2occ(C34CC(C3)C(=O)NC4=O)c2c1 [Example A201, 5-(5-((1,3-dimethyl-2-oxo-7-(tetrahydro-2H-pyran-4-yl)-2,3-dihydro-1H-benzo[d]imidazol-5-yl)(methyl)amino)pyrimidin-2-yl)-N-(3-(3-(2,4-dioxo-3-azabicyclo[3.1.1]heptan-1-yl)benzofuran-5-yl)prop-2-yn-1-yl)-3-methylpicolinamide] | > 80 | 1 to 9.9 |
| Cc1cc(-c2cnc(Nc3cc(C4CCOCC4)c4c(c3)n(C)c(=O)n4C)cn2)cnc1C(=O)NCC#Cc1cc2c(C3CCC(=O)NC3=O)cccc2o1 (stereo not shown) [Example A193] | < 20 | > 1000 |
| CC(C)c1cc(-c2cccc3cc(-c4ccc(C(=O)NCC#Cc5ccc6ncnc(C7CCC(=O)NC7=O)c6c5)nc4)ncc23)cc2c1n(C)c(=O)n2C (stereo not shown) [Example A214, N-(3-(4-(2,6-dioxo-piperidin-3-yl)quinazolin-6-yl)prop-2-yn-1-yl)-5-(8-(7-isopropyl-1,3-dimethyl-2-oxo-2,3-dihydro-1H-benzo [d]imidazol-5-yl)isoquinolin-3-yl)picolinamide] | 60 to 79 | 10 to 99 |
| Cc1cc(-c2ccc(N(C)c3cc(C(C)C)c4c(c3)n(C)c(=O)n4C)cc2Cl)cnc1C(=O)NCC#Cc1cccc(NC2CCC(=O)NC2=O)c1 (stereo not shown) [Example A44, 5-(2-chloro-4-((7-isopropyl-1,3-dimethyl-2-oxo-2,3-dihydro-1H-benzo[d]imidazol-5-yl)(methyl)amino)phenyl)-N-(3-(3-((2,6-dioxopiperidin-3-yl)amino)phenyl)prop-2-yn-1-yl)-3-methylpicolinamide] | 60 to 79 | 100 to 999 |
| CC(C)c1cc(N2CCOc3cc(-c4ccc(C(=O)NCC#Cc5ccc6occ(C7CCC(=O)NC7=O)c6c5)nc4)c(F)cc32)cc2c1n(C)c(=O)n2C (stereo not shown) [Example A110, N-(3-(3-(2,6-dioxo-piperidin-3-yl)benzofuran-5-yl)prop-2-yn-1-yl)-5-(6-fluoro-4-(7-isopropyl-1,3-dimethyl-2-oxo-2,3-dihydro-1H-benzo[d]imidazol-5-yl)-3,4-dihydro-2H-benzo[b][1,4]oxazin-7-yl)picolinamide] | > 80 | 1 to 9.9 |
| Cn1c(=O)n(C)c2c(C3CCS(=O)(=O)CC3)nc(N3CCCc4cc(-c5ccc(C(=O)NCC#Cc6ccc7occ(C8CCC(=O)NC8=O)c7c6)nc5)c(C(F)F)cc43)cc21 (stereo not shown) [Example A140, 5-(7-(difluoromethyl)-1-(4-(1,1-dioxido-tetrahydro-2H-thio-pyran-4-yl)-1,3-dimethyl-2-oxo-2,3-dihydro-1H-imidazo[4,5-c]pyridin-6-yl)-1,2,3,4-tetrahydroquinolin-6-yl)-N-(3-(3-(2,6-dioxopiperidin-3-yl)benzofuran-5-yl)prop-2-yn-1-yl)picolinamide] | 40 to 59 | 1 to 9.9 |
| Cc1cc(-c2ncc3c(n2)OCCN3c2cc(C)c3c(c2)n(C)c(=O)n3C)cnc1C(=O)NCC#Cc1cc2c(C3CCC(=O)NC3=O)cccc2o1 (stereo not shown) [Example A241, N-(3-(4-(2,6-dioxo-piperidin-3-yl)benzofuran-2-yl)prop-2-yn-1-yl)-3-methyl-5-(5-(1,3,7-trimethyl-2-oxo-2,3-dihydro-1H-benzo [d]imidazol-5-yl)-6,7-dihydro-5H-pyrimido [4,5-b][1,4]oxazin-2-yl)picolinamide] | > 80 | 1 to 9.9 |
| CC(C)c1cc(-c2cccc3cc(-c4ccc(C(=O)NCC#Cc5ccc6c(c5)ncn6C5CCC(=O)NC5=O)nc4)ncc23)cc2c1n(C)c(=O)n2C (stereo not shown) [Example A38, N-(3-(1-(2,6-Dioxopiperidin-3-yl)-1H-benzo[d]imidazol-5-yl)prop-2-yn-1-yl)-5-(8-(7-isopropyl-1,3-dimethyl-2-oxo-2,3-dihydro-1H-benzo[d]imidazol-5-yl)isoquinolin-3-yl)picolinamide] | < 20 | > 1000 |

Other lines, results leading:

| Dmax [%] | DC50 [nM] | SMILES |
| --- | --- | --- |
| > 80 | 1 to 9.9 | COc1cc(N2CCOc3cc(-c4ccc(C(=O)NCC#Cc5ccc6occ(C7CCC(=O)NC7=O)c6c5)nc4)c(F)cc32)c2cc(C)c(=O)n(C)c2c1 (stereo not shown) [Example B147, N-(3-(3-(2,6-dioxopiperidin-3-yl)benzofuran-5-yl)prop-2-yn-1-yl)-5-(6-fluoro-4-(7-methoxy-1,3-dimethyl-2-oxo-1,2-dihydro-quinolin-5-yl)-3,4-dihydro-2H-benzo[b][1,4]oxazin-7-yl)picolinamide] |
| 60 to 79 | 1 to 9.9 | Cc1cc2c(N3CCCc4cc(-c5ccc(C(=O)NCC#Cc6ccc7occ(C8CCC(=O)NC8=O)c7c6)nc5)ccc43)cc(C3CCOCC3)cc2n(C)c1=O (stereo not shown) [Example B140, 5-(1′,3′-dimethyl-2′-oxo-7′-(tetrahydro-2H-pyran-4-yl)-1′,2′,3,4-tetrahydro-2H-[1,5′-biquinolin]-6-yl)-N-(3-(3-(2,6-dioxopiperidin-3-yl)benzofuran-5-yl)prop-2-yn-1-yl) picolinamide] |
| 60 to 79 | 1 to 9.9 | Cc1cc2c(N3CCCc4nc(-c5ccc(C(=O)NCC#Cc6ccc7occ(C8CCC(=O)NC8=O)c7c6)nc5)ncc43)nc(C3CCOCC3)cc2n(C)c1=O (stereo not shown) [Example B70, 5-(5-(1,3-dimethyl-2-oxo-7-(tetrahydro-2H-pyran-4-yl)-1,2-dihydro-1,6-naphthyridin-5-yl)-5,6,7,8-tetrahydropyrido[3,2-d]pyrimidin-2-yl)-N-(3-(3-(2,6-dioxopiperidin-3-yl)benzofuran-5-yl)prop-2-yn-1-yl)picolinamide] |
| > 80 | 1 to 9.9 | Cc1cc2c(N3CCCc4nc(-c5ccc(C(=O)NCC#Cc6cc7c(C8CCC(=O)NC8=O)cccc7o6)nc5)ncc43)cc(Cl)cc2n(C)c1=O (stereo not shown) [Example B126, 5-(5-(7-chloro-1,3-dimethyl-2-oxo-1,2-dihydroquinolin-5-yl)-5,6,7,8-tetrahydropyrido [3,2-d]pyrimidin-2-yl)-N-(3-(4-(2,6-dioxo-piperidin-3-yl)benzofuran-2-yl)prop-2-yn-1-yl)picolinamide] |
| 20 to 39 | 1 to 9.9 | Cc1cc2c(N3CCCc4nc(-c5ccc(C(=O)NCC#Cc6cc7c(C8CCC(=O)NC8=O)cccn7n6)nc5)ncc43)cc(C3CCOCC3)cc2n(C)c1=O (stereo not shown) [Example B170, 5-(5-(1,3-dimethyl-2-oxo-7-(tetrahydro-2H-pyran-4-yl)-1,2-dihydroquinolin-5-yl)-5,6,7,8-tetrahydropyrido[3,2-d]pyrimidin-2-yl)-N-(3-(4-(2,6-dioxopiperidin-3-yl)pyrazolo[1,5-a]pyridin-2-yl)prop-2-yn-1-yl)picolinamide] |
| 60 to 79 | 10 to 99 | CCc1cc(N(C)c2ccc(-c3cnc(C(=O)NCC#Cc4cccc(NC5CCC(=O)NC5=O)c4)c(C)c3)c(C(F)(F)F)c2)c2cc(C)c(=O)n(C)c2c1 (stereo not shown) [Example B14, N-(3-(3-((2,6-Dioxopiperidin-3-yl)amino)phenyl)prop-2-yn-1-yl)-5-(4-((7-ethyl-1,3-dimethyl-2-oxo-1,2-dihydroquinolin-5-yl)(methyl)amino)-2-(trifluoromethyl)phenyl)-3-methylpicolinamide] |
